{
  "source": "patent US12606594B2",
  "about": "“Heterotandem bicyclic peptide complexes” (BicycleTx Limited, priority 2019, dated 2026)",
  "key": {"[1]": {"test": "Pharmacokinetics of BCY13272 in SD rats", "type": "in vivo", "conditions": "3.6 mg/kg IV infusion (15 min)", "method": "Male SD Rats were dosed with heterotandem complex BCY13272 formulated in 25 mM Histidine HCl, 10% sucrose pH 7 by IV bolus or IV infusion (15 minutes). Serial bleeding (about 80 μL blood/time point) was performed via submandibular or saphenous vein at each time point. All blood samples were immediately transferred into prechilled microcentrifuge tubes containing 2 μL K2-EDTA (0.5M) as anti-coagulant and placed on wet ice. Blood samples were immediately processed for plasma by centrifugation at approximately 4° C., 3000 g. The precipitant including internal standard was immediately added into the plasma, mixed well and centrifuged at 12,000 rpm, 4° C. for 10 minutes. The supernatant was transferred into pre-labeled polypropylene microcentrifuge tubes, and then quick-frozen over dry ice. The samples were stored at […] or below as needed until analysis. 7.5 μL of the supernatant samples were directly injected for LC-MS/MS analysis using an Orbitrap Q Exactive in positive ion mode to determine the concentrations of analyte. Plasma concentration versus time data were analyzed by non-compartmental approaches using the Phoenix WinNonlin 6.3 software program. CO, Cl, Vdss, T½, AUC(0-last), AUC(0-inf), MRT(0-last), MRT(0-inf) and graphs of plasma concentration versus time profile were reported."}, "[2]": {"test_system": "CD137", "test": "CD137 reporter assay co-culture with tumor cells (Promega CD137 luciferase reporter, Jurkat cells)", "type": "cell-based", "method": "(§1) Culture medium, referred to as R1 media, is prepared by adding 1% FBS to RPMI-1640 (component of Promega kit CS196005). Serial dilutions of test articles in R1 are prepared in a sterile 96 well-plate. Add 25 μL per well of test articles or R1 (as a background control) to designated wells in a white cell culture plate. Tumor cells* are harvested and resuspended at a concentration of 400,000 cells/mL in R1 media. Twenty five (25) μL/well of tumor cells are added to the white cell culture plate. Jurkat cells (Promega kit CS196005, 0.5 mL) are thawed in the water bath and then added to 5 ml pre-warmed R1 media. Twenty five (25) […] of Jurkat cells are then added to the white cell culture plate. Incubate the cells and test articles for 6 h at 37° C., 5% CO2. At the end of 6 h, add 75 µL/well Bio-Glo™ reagent (Promega) and incubate for 10 min before reading luminescence in a plate reader (Clariostar, BMG). The fold change relative to cells alone (Jurkat cells+Cell line used in co-culture) is calculated and plotted in GraphPad Prism as log(agonist) vs response to determine EC50 (nM) and Fold Induction over background (Max).\n(§2) The tumor cell types used in co-culture for EphA2 are A549, PC-3 and HT29."}, "[3]": {"test": "CD137 reporter assay co-culture with tumor cells (Promega CD137 luciferase reporter, Jurkat cells)", "type": "cell-based", "conditions": "read-out: Emax (Fold Induction over background)", "method": "as §1, §2"}},
  "note": "Where “and” joins values, the source holds several entries; their conditions need not be identical. Identical values can stand only once. Like-named read-outs stand apart in the source and are kept apart here. Starred links: 1 amine or outer side, 2 acyl side, 3 side chain; linkers in the order of their positions; H or OH if unused. Positions of bridges follow the written chain, without caps; N, C: chain ends. Non-standard residues stand in square brackets, D forms with d. Chains are numbered I, II in the order given. X1 = O=C(CCOCCOCCOCCN(CCOCCOCCOCCn1cc(CCC(=O)[*:2])nn1)CCOCCOCCOCCn1cc(CCC(=O)[*:3])nn1)[*:1]; TATA = O=C(CC[*:1])N1CN(C(=O)CC[*:2])CN(C(=O)CC[*:3])C1; d1Nal = N[C@H](Cc1cccc2ccccc12)C(=O)O; Hyp = O=C(O)[C@@H]1C[C@@H](O)CN1; hArg = N=C(N)NCCCC[C@H](N)C(=O)O; tBuAla = CC(C)(C)C[C@H](N)C(=O)O; Nle = CCCC[C@H](N)C(=O)O",
  "data": [
    {"substance": "I: A[hArg]DC[Hyp]LVNPLCLEP[d1Nal]WTC-NH2 / II: Ac-C[tBuAla]PE[dK]PYCFADPY[Nle]CA-NH2 / III: Ac-C[tBuAla]PE[dK]PYCFADPY[Nle]CA-NH2 (linker I:4-I:11-I:18, II:1-II:8-II:15, III:1-III:8-III:15 via TATA (inferred); linker I:N-II:5-III:5 via X1 (inferred)) [BCY13272]", "values": [
      {"measurement": "T½ (terminal half-life)", "setting": "[1]; 3.6 mg/kg", "value": 2.9, "unit": "h"},
      {"measurement": "clearance", "setting": "[1]; rat, in vivo, read-out: Clp (clearance)", "value": 7.4, "unit": "mL/min/kg"},
      {"measurement": "Emax (Fold Induction over background)", "setting": "[2]; EphA2 cell line A549", "value": "23.6 and 30.2"},
      {"measurement": "Emax (Fold Induction over background)", "setting": "[2]; EphA2 cell line HT-29", "value": "26 and 36.4"},
      {"measurement": "Emax (Fold Induction over background)", "setting": "[2]; EphA2 cell line PC-3", "value": "53 and 44.5"},
      {"measurement": "fold induction", "setting": "[3]; EphA2 cell line A549", "value": 25.7},
      {"measurement": "fold induction", "setting": "[3]; EphA2 cell line HT-29", "value": 36.5},
      {"measurement": "fold induction", "setting": "[3]; EphA2 cell line PC-3", "value": 44.2}
    ]}
  ]
}
